In the test the test system is S. pyogenes A561. Nature of the test: Method of dilutions in liquid medium (minimum inhibiting concentration). The format is cell-based. Conditions: liquid nutritive medium, incubation twenty-four hours at 37° C, growth inhibition read by transillumination; for MIC: Streptococcus pyogenes, 24 h, read-out: minimum inhibiting concentrations (M.I.C.). How it is done:
Method of dilutions in liquid medium.
A series of tubes were prepared in which the same amount of sterile nutritive medium was distributed and increasing amounts of the product to be studied was distributed in each tube. Then, each tube was seeded with a bacterial strain and after incubationg for twenty-four hours in an oven at 37° C, the inhibition of growth was determined by transillumination which allowed the minimum inhibiting concentrations (M.I.C.) to be evaluated.
Products were tested on many strains inclusing : • S. aureus SG511 • S. aureus SG511 (+10 % serum) • S. aureus Exp54146 • S. pyogenes A561 • E. faecium M78L

In the case of `CC(=O)NC1C(OC2C(COC3OC(CO)C(O)C(O)C3O)OC(OC3C(OP(=O)(O)OCC(OCCNCC=C(C)CCCC(C)CCCC(C)CCCC(C)C)C(=O)O)OC(C(N)=O)C(C)(O)C3OC(N)=O)C(NC(C)=O)C2O)OC(C)C(OC2OC(C(N)=O)C(O)C(O)C2O)C1O` [Example 4, 3-carbamate 1-[(2R)-2-carboxy-2-[[(3,7,11,15-tetramethyl-2-hexadecenyl)amino]ethoxy]ethyl hydrogen phosphate] 0-β-D-glucopyranosyl-(1→6)-O-[O-(β-D-galactopyranuronamidosyl)-(1→4)-2-(acetylamino)-2,6-dideoxy-β-D-glucopyranosyl-(1→4]-O-2-(acetylamino)-2-deoxy-.beat.-D-glucopyranosyl-(1→2)-4-C-methyl-α-D-Glucopyranuronamide], the “minimum inhibiting concentrations (M.I.C.)” value is on record as ≤ 1,2 microgramme/ml.
For the compound `CCCCCCCCCCCCc1ccc(NCCO[C@H](COP(=O)(O)O[C@H]2O[C@H](C(N)=O)[C@@](C)(O)[C@H](OC(N)=O)[C@H]2O[C@@H]2O[C@H](CO[C@@H]3O[C@H](CO)[C@@H](O)[C@H](O)[C@H]3O)[C@@H](O[C@@H]3O[C@H](C)[C@@H](O[C@@H]4O[C@H](C(N)=O)[C@H](O)[C@H](O)[C@H]4O)[C@H](O)[C@H]3NC(C)=O)[C@H](O)[C@H]2NC(C)=O)C(=O)O)cc1` [Example 5, 3-carbamate 1-[(2R)-2-carboxy-2-[[(4-dodecylphenyl))amino]ethoxy]ethyl hydrogen phosphate] 0-β-D-glucopyranosyl-(1→6)-O-[O-(β-D-galactopyranuronamidosyi)-(1→4)-2-(acetylamino)-2,6-dideoxy-β-D-glucopyranosyl-(1→4]-O-2-(acetylamino)-2-deoxy-.beat.-D-glucopyranosyl-(1→2)-4-C-methyl-α-D-Glucopyranuronamide], the MIC was at most 1.2 µg/mL.
For `C=CC(CCCCCCCCC)C(O)CO[C@H](COP(=O)(O)O[C@H]1O[C@H](C(N)=O)[C@@](C)(O)[C@H](OC(N)=O)[C@H]1O[C@@H]1O[C@H](CO[C@@H]2O[C@H](CO)[C@@H](O)[C@H](O)[C@H]2O)[C@@H](O[C@@H]2O[C@H](C)[C@@H](O[C@@H]3O[C@H](C(N)=O)[C@H](O)[C@H](O)[C@H]3O)[C@H](O)[C@H]2NC(C)=O)[C@H](O)[C@H]1NC(C)=O)C(=O)O` (stereo partly drawn) [Example 6], the MIC is at most 1.2 µg/mL.

These data come from EP1069130A1, “Moenomycin A Derivatives, their preparation, and use as antibacterial products” (HOECHST MARION ROUSSEL, priority 1999, dated 2001).
